Counter-ions that a name gives are not always drawn.
Assays:
Type in all cases: biochemical
[1] = molecular target: Human recombinant SSAO/VAP-1 (Homo sapiens (Human), UniProt Q16853); assay: Human recombinant SSAO/VAP-1 amine oxidase inhibition; conditions: 30 min preincubation at 37° C., 600 μM benzylamine
Method: Method to Determine the Ability of Compounds of Formula I to Inhibit Human Recombinant SSAO/VAP-1
Human recombinant SSAO/VAP-1 amine oxidase activity was determined using the coupled colorimetric method as described for monoamine oxidase, copper-containing amine oxidases and related enzymes (Holt A. and Palcic M., A peroxidase-coupled continuous absorbance plate-reader assay for flavin monoamine oxidases, copper-containing amine oxidases and related enzymes. Nat Protoc 2006; 1: 2498-2505). Briefly, a cloned cDNA template corresponding to residues 34-763 of human SSAO/VAP-1, and incorporating a mouse Ig kappa (κ) signal sequence, N-terminal flag epitope tag and tobacco etch virus (TEV) cleavage site, was assembled in a mammalian expression vector (pLO-CMV) by Geneart AG. This vector containing human SSAO/VAP-1 residues was transfected into CHO-K1 glycosylation mutant cell line, Lec 8. A clone stably expressing human SSAO/VAP-1 was isolated and cultured in large scale. Active human SSAO/VAP-1 was purified and recovered using immunoaffinity chromatography. This was used as the source for SSAO/VAP-1 activity. A high-throughput colorimetric assay was developed using either 96 or 384 well format. Briefly, in a standard 96 well plate assay 50 μL of purified human SSAO/VAP-1 (0.25 μg/mL) in 0.1 M sodium phosphate buffer (pH 7.4) was added into each well. Test compounds were dissolved in DMSO and tested in a Concentration Response Curve (CRC) with 4-11 data points, typically in the micromolar or nanomolar range after incubation with human SSAO/VAP-1 for 30 min at 37° C. After 30 min incubation, 50 μL of the reaction mixture containing 600 μM benzylamine (Sigma Aldrich), 120 μM Amplex Red (Sigma Aldrich) and 1.5 U/mL horseradish peroxidase (Sigma Aldrich) prepared in 0.1 M sodium phosphate buffer (pH 7.4) were added to the corresponding well. The fluorescence unit (RFU) was read every 2.5 min for 30 min at 37° C. excitation 565 nm and emission 590 (Optima; BMG labtech). The slope of the kinetics for each well was calculated using MARS data analysis software (BMG labtech) and this value was used to deduce the IC50 value (Dotmatics).

Human LOXL2 = Human LOXL2 (Homo sapiens (Human), UniProt Q9Y4K0); assay: LOXL2 inhibition, peroxidase-coupled Amplex Red amine oxidase assay; conditions: 30 min preincubation at 37° C., putrescine substrate
Text: (§1) Method to Determine the Ability of Compounds of the Invention to Inhibit LOX and LOXL1-4 from Different Sources
(§2) Lysyl oxidase (LOX) is an extracellular copper dependent enzyme which oxidizes peptidyl lysine and hydroxylysine residues in collagen and lysine residues in elastin to produce peptidyl alpha-aminoadipic-delta-semialdehydes. […] There are five LOX family members; these are LOX, LOXL1, LOXL2, LOXL3 and LOXL4. LOX and LOXL family members can be acquired as recombinant active proteins from commercial sources, or extracted from animal tissues like bovine aorta, tendons, pig skin; or prepared from cell cultures. The inhibitory effects of the compounds of the present invention were tested against the given LOX-LOXL preparation using a high-throughput coupled colorimetric method (Holt A. and Palcic M., A peroxidase-coupled continuous absorbance plate-reader assay for flavin monoamine oxidases, copper-containing amine oxidases and related enzymes. Nat. Protoc. 2006; 1: 2498-2505). The assay was developed using either 384 or 96 well format. Briefly, in a standard 384 well plate assay 25 μL of a dilution of any of the isoenzymes and orthologues in 1.2 M urea, 50 mM sodium borate buffer (pH 8.2) were added into each well in the presence of 1 μM mofegiline and 0.5 mM pargyline (to inhibit SSAO and MAO-B and MAO-A, respectively). Test compounds were dissolved in DMSO and tested in a Concentration Response Curve (CRC) with 11 data points, typically in the micromolar or nanomolar range after incubation with the enzyme for 30 min at 37° C. Twenty five μL of a reaction mixture containing twice the KM concentration of putrescine (Sigma Aldrich, e.g. 20 mM for LOX, or 10 mM for LOXL2 and LOXL3), 120 μM Amplex Red (Sigma Aldrich) and 1.5 U/mL horseradish peroxidase (Sigma Aldrich) prepared in 1.2 M urea, 50 mM sodium borate buffer (pH 8.2) were then added to the corresponding wells. The above volumes were doubled in the case of 96 wells plate. The fluorescence (RFU) was read every 2.5 min for 30 min at a range of temperatures from 37° to 45° C., excitation 565 nm and emission 590 (Optima; BMG labtech). The slope of the kinetics for each well was calculated using MARS data analysis software (BMG labtech) and this value was used to deduce the IC50 value (Dotmatics).

Bovine LOX = Bovine LOX (Bos taurus (Bovine), UniProt P33072); assay: LOX inhibition, peroxidase-coupled Amplex Red amine oxidase assay; conditions: 30 min preincubation at 37° C., putrescine substrate
Text: as §1
as §2, with “Test compounds were dissolved in DMSO and tested in a Concentration Response Curve (CRC) with 11 data points, typically in the micromolar or nanomolar range after incubation with the enzyme for 30 min at 37° C.” left out

Recombinant human MAO-B = Recombinant human MAO-B (Homo sapiens (Human), UniProt P27338); assay: Human recombinant MAO-B inhibition; conditions: benzylamine 100 μM
Method: Method to Determine the Ability of Compounds of Formula I to Inhibit Human Recombinant MAO-B
The specificity of the compounds of this invention was tested by determining their ability to inhibit MAO-B activities in vitro. Recombinant human MAO-B (0.06 mg/mL; Sigma Aldrich) was used as source of MAO-B enzyme activities. The assay was performed in a similar way as for human SSAO/VAP-1 (Example 36) except, the substrate benzylamine was used at 100 μM.

Human recombinant SSAO/VAP-1, sequence (Q16853 34-763): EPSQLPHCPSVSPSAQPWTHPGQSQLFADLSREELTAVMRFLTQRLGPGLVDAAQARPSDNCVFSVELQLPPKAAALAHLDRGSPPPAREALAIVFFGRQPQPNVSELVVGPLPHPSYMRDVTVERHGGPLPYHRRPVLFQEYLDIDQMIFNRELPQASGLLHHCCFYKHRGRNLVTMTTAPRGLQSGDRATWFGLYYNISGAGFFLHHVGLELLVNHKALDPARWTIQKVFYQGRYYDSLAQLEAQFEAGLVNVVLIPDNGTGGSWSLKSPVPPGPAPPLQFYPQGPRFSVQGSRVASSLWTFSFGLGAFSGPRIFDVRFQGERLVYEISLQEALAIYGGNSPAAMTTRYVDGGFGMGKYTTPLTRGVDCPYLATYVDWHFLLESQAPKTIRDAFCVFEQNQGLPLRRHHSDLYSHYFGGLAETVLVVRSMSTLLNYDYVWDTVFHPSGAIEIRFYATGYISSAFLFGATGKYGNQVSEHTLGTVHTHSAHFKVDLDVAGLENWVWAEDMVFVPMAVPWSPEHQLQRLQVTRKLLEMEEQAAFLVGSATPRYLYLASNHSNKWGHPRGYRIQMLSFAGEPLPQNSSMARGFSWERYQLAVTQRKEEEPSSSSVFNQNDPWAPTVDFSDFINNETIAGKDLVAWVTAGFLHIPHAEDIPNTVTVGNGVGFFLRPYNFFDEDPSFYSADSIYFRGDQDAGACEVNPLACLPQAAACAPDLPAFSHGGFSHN
Human LOXL2, sequence (Q9Y4K0 26-774): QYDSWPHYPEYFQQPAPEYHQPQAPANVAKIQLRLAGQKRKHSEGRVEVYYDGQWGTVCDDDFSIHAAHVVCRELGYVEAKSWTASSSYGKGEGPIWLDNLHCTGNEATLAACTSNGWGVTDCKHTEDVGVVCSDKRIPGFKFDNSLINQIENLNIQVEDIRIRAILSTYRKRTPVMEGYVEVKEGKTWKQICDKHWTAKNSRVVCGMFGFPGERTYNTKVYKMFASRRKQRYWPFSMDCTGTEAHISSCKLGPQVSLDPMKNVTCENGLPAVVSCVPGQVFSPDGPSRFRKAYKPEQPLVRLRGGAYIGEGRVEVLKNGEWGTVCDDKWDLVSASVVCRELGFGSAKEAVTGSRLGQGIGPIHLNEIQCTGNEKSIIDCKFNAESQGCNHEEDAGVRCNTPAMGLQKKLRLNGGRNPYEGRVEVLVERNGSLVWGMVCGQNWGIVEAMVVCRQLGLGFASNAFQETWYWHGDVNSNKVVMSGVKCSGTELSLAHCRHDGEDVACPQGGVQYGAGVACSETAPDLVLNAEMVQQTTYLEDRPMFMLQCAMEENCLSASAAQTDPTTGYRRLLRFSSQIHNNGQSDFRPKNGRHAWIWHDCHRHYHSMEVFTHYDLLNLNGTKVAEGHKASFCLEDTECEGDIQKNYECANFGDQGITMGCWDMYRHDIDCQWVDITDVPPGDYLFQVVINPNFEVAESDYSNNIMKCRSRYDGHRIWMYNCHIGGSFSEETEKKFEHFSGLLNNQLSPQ
Recombinant human MAO-B, sequence (P27338 whole entry): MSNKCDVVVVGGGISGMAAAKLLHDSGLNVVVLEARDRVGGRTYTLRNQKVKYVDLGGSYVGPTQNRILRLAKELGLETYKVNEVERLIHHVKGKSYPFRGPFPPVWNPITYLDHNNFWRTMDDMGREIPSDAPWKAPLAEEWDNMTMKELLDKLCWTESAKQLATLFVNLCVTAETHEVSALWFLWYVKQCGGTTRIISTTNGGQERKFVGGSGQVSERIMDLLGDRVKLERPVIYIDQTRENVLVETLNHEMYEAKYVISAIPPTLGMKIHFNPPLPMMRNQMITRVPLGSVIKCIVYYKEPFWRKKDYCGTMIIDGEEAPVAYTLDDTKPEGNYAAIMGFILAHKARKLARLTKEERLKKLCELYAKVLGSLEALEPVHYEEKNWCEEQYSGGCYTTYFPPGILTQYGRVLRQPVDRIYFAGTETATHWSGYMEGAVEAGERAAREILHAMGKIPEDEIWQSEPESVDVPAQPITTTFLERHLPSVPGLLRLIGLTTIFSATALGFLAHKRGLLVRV
Bovine LOX, sequence (P33072 170-418): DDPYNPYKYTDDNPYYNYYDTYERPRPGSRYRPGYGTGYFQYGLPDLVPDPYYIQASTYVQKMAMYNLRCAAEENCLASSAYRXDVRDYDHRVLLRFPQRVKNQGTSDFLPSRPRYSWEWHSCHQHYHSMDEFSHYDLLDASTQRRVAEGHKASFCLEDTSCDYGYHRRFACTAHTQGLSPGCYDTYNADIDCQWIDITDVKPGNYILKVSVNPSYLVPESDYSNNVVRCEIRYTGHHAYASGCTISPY

| Compound | IC50 [1] | IC50 (Human LOXL2) | IC50 (Bovine LOX) | IC50 (Recombinant human MAO-B) |
| --- | --- | --- | --- | --- |
| CN(C)S(=O)(=O)c1ccc(Cc2c(C(C)(C)O)n(C/C(F)=C/CN)c3cccnc23)cc1 [Compound 25, (Z)-4-((1-(4-amino-2-fluorobut-2-en-1-yl)-2-(2-hydroxypropan-2-yl)-1H-pyrrolo[3,2-b]pyridin-3-yl)methyl)-N,N-dimethylbenzenesulfonamide dihydrochloride] | > 3000 nM | < 300 nM | > 300 nM | > 3000 nM |
| Cc1c(Cc2ccc(S(=O)(=O)N(C)C)cc2)c2nc(F)ccc2n1C/C(F)=C/CN [Compound 23, (Z)-4-((1-(4-amino-2-fluorobut-2-en-1-yl)-5-fluoro-2-methyl-1H-pyrrolo[3,2-b]pyridin-3-yl)methyl)-N,N-dimethylbenzenesulfonamide dihydrochloride] | > 3000 nM | < 300 nM | > 300 nM | > 3000 nM |
| Cc1c(Cc2ccc(S(C)(=O)=O)nc2)c2nc(C(F)(F)F)ccc2n1C/C(F)=C/CN [Compound 31, (Z)-3-fluoro-4-(2-methyl-3-((6-(methylsulfonyl)pyridin-3-yl)methyl)-5-(trifluoromethyl)-1H-pyrrolo[3,2-b]pyridin-1-yl)but-2-en-1-amine trihydrochloride] | > 3000 nM | < 300 nM | > 300 nM | > 3000 nM |
| Cc1c(Cc2ccc(S(=O)(=O)N(C)C)cc2)c2cc(C(N)=O)ccc2n1C/C(F)=C/CN [Compound 4, (Z)-1-(4-amino-2-fluorobut-2-en-1-yl)-3-(4-(N,N-dimethylsulfamoyl)benzyl)-2-methyl-1H-indole-5-carboxamide hydrochloride] | > 3000 nM | < 300 nM | > 300 nM | > 3000 nM |
| Cc1c(Cc2cccc(S(=O)(=O)N(C)C)c2)c2cc(S(=O)(=O)N(C)C)ccc2n1C/C(F)=C/CN [Compound 7, (Z)-1-(4-amino-2-fluorobut-2-en-1-yl)-3-(3-(N,N-dimethylsulfamoyl)benzyl)-N,N,2-trimethyl-1H-indole-5-sulfonamide hydrochloride] | > 3000 nM | < 300 nM | > 300 nM | > 3000 nM |
| CCS(=O)(=O)c1ccc(Cc2c(C(C)C)n(C/C(F)=C/CN)c3cccnc23)cn1 [Compound 43, (Z)-4-(3-((6-(ethylsulfonyl)pyridin-3-yl)methyl)-2-isopropyl-1H-pyrrolo[3,2-b]pyridin-1-yl)-3-fluorobut-2-en-1-amine dihydrochloride] | – | < 300 nM | > 300 nM | – |
| Cc1ccc2c(n1)c(CCc1ccc(S(C)(=O)=O)cc1)c(C)n2C/C(F)=C/CN [Compound 40, (Z)-4-(2,5-dimethyl-3-(4-(methylsulfonyl)phenethyl)-1H-pyrrolo[3,2-b]pyridin-1-yl)-3-fluorobut-2-en-1-amine dihydrochloride] | > 3000 nM | < 300 nM | > 300 nM | > 3000 nM |
| Cc1c(Cc2ccc(S(=O)(=O)N(C)C)cc2)c2cnccc2n1C/C(F)=C/CN [Compound 32, (Z)-4-((1-(4-amino-2-fluorobut-2-en-1-yl)-2-methyl-1H-pyrrolo[3,2-c]pyridin-3-yl)methyl)-N,N-dimethylbenzenesulfonamide dihydrochloride] | > 3000 nM | < 300 nM | > 300 nM | > 3000 nM |
| CC(O)c1c(Cc2ccc(S(=O)(=O)N(C)C)cc2)c2ncccc2n1C/C(F)=C/CN (stereo not drawn) [Compound 29, (Z)-4-((1-(4-amino-2-fluorobut-2-en-1-yl)-2-(1-hydroxyethyl)-1H-pyrrolo[3,2-b]pyridin-3-yl)methyl)-N,N-dimethylbenzenesulfonamide dihydrochloride] | > 3000 nM | < 300 nM | > 300 nM | > 3000 nM |
| CC(C)c1c(Cc2ccc(S(=O)(=O)C3CC3)nc2)c2ncccc2n1C/C(F)=C/CN [Compound 44, (Z)-4-(3-((6-(cyclopropylsulfonyl)pyridin-3-yl)methyl)-2-isopropyl-1H-pyrrolo[3,2-b]pyridin-1-yl)-3-fluorobut-2-en-1-amine dihydrochloride] | – | < 300 nM | > 300 nM | – |

Reference: patent US10717734B2, “Indole and azaindole haloallylamine derivative inhibitors of lysyl oxidases and uses thereof” (PHARMAXIS LTD., priority 2016, dated 2020)
